Results as given in paper PMC8119466, “A screen of FDA-approved drugs identifies inhibitors of protein tyrosine phosphatase 4A3 (PTP4A3 or PRL-3)” (Scientific Reports, 2021).
Counter-ions that a name gives are not always drawn. Like-named read-outs stand apart in the source and are kept apart here.

Tests used:
Assay type in all cases: biochemical
[1] = target: T1, recombinant PRL-3 (Homo sapiens, UniProt O75365); assay: In vitro phosphatase assay (DiFMUP hydrolysis), PRL-3; further: test concentration or dose not given here
T1 construct: 6xHis (N, cleaved yes); made in house; host or cells: E. coli One Shot BL21 Star
T1 sequence (O75365 whole entry): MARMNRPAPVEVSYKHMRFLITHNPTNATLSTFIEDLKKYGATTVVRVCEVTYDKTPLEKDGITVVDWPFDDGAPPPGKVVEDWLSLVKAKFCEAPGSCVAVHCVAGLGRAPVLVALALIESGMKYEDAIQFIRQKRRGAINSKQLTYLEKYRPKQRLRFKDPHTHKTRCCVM

[2] = target: T2, recombinant PRL-2 (Homo sapiens, UniProt Q12974); assay: In vitro phosphatase assay (DiFMUP hydrolysis), PRL-2;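 further: PRL-2 activity read as DiFMUP hydrolysis after 20 min at room temperature with drug, enzyme first pre-reduced at 4 °C for 20 min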
T2 construct: 6xHis (N, cleaved yes); made in house; host or cells: E. coli One Shot BL21 Star
T2 sequence (Q12974 1-167): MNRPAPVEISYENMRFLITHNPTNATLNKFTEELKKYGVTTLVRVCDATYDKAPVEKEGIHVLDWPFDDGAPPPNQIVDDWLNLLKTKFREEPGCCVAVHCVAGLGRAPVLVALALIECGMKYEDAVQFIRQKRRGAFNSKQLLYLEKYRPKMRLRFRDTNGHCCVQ

[3] = target: T3, recombinant PRL-1 (Homo sapiens, UniProt Q93096); assay: In vitro phosphatase assay (DiFMUP hydrolysis), PRL-1; further: test concentration or dose not given here
T3 construct: 6xHis (N, cleaved yes); made in house; host or cells: E. coli One Shot BL21 Star
T3 sequence (Q93096 1-173): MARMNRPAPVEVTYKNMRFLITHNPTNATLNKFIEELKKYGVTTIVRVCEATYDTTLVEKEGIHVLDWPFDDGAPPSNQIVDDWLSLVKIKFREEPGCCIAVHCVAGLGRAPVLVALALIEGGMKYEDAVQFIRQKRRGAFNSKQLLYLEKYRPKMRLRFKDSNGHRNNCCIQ

[4] = FDA-approved drug screen, compared to DMSO

SMILES | % Phosphatase Activity (compared to DMSO) PRL-3 [1] | % Phosphatase Activity (compared to DMSO) PRL-2 [2] | % Phosphatase Activity (compared to DMSO) PRL-1 [3] | % Phosphatase Activity (compared to DMSO) PRL-3 [1, 4] | % Phosphatase Activity (compared to DMSO) PRL-2 [2, 4] | % Phosphatase Activity (compared to DMSO) PRL-1 [3, 4]
O=P1(N(CCCl)CCCl)NCCCO1 (stereo not drawn) [Cyclophosphamide Monohydrate] | 94% | 105% | 90% |  |  | 
CN1CCC(=C2c3ccccc3C=Cc3ccccc32)CC1 [Cyproheptadine hydrochloride] |  |  |  | 84% | 102% | 93%
CC(=O)O[C@]1(C(C)=O)CC[C@H]2[C@@H]3C=C(Cl)C4=CC(=O)[C@@H]5C[C@@H]5[C@]4(C)[C@H]3CC[C@@]21C [Cyproterone Acetate] |  |  |  | 99% | 91% | 92%
Nc1nc(N)nc(NC2CC2)n1 [Cyromazine] |  |  |  | 78% | 101% | 90%
Cl.NCCS [Cysteamine HCl] |  |  |  | 70% | 79% | 91%
Nc1ccn([C@@H]2O[C@H](CO)[C@@H](O)[C@@H]2O)c(=O)n1 [Cytarabine] |  |  |  | 91% | 86% | 104%
CC(C)(CO)[C@@H](O)C(=O)NCCCO [D panthenol] |  |  |  | 90% | 80% | 93%
OC[C@@H](O)[C@@H](O)[C@H](O)[C@H](O)CO [D-Mannitol] |  |  |  | 104% | 101% | 93%
CCN(CC)C(=O)c1cccc(C)c1 [DEET] |  |  |  | 85% | 77% | 95%
CCCCCCOC(=O)N=C(N)c1ccc(NCc2nc3cc(C(=O)N(CCC(=O)OCC)c4ccccn4)ccc3n2C)cc1 [Dabigatran Etexilate] |  |  |  | 106% | 112% | 121%
CC(C)(C)c1nc(-c2cccc(NS(=O)(=O)c3c(F)cccc3F)c2F)c(-c2ccnc(N)n2)s1 [Dabrafenib (GSK2118436)] |  |  |  | 86% | 82% | 81%
CN(C)/N=N/c1[nH]cnc1C(N)=O [Dacarbazine] |  |  |  | 76% | 98% | 92%
COC(=O)N[C@H](C(=O)N1CCC[C@H]1c1ncc(-c2ccc(-c3ccc(-c4cnc([C@@H]5CCCN5C(=O)[C@@H](NC(=O)OC)C(C)C)[nH]4)cc3)cc2)[nH]1)C(C)C [Daclatasvir (BMS-790052)] |  |  |  | 236% | 324% | 320%
COc1cc2ncnc(Nc3ccc(F)c(Cl)c3)c2cc1NC(=O)/C=C/CN1CCCCC1 [Dacomitinib (PF299804, PF299)] |  |  |  | 120% | 147% | 145%
CN1C[C@@H]2C[C@H]1CN2c1cc2c(cc1F)c(=O)c(C(=O)O)cn2C1CC1.CS(=O)(=O)O [Danofloxacin Mesylate] |  |  |  | 146% | 757% | 998%
O=C1c2cccc(O)c2C(=O)c2c(O)cccc21 [Danthron] |  |  |  | 78% | 96% | 96%
O=C1CN(/N=C/c2ccc(-c3ccc([N+](=O)[O-])cc3)o2)C(O)=N1 [Dantrolene sodium] |  |  |  | 60% | 75% | 76%
CCOc1ccc(Cc2cc([C@@H]3O[C@H](CO)[C@@H](O)[C@H](O)[C@H]3O)ccc2Cl)cc1 [Dapagliflozin] | 89% | 91% | 98% |  |  | 

SMILES | % Phosphatase Activity (compared to DMSO) PRL-3 [1] | % Phosphatase Activity (compared to DMSO) PRL-2 [2] | % Phosphatase Activity (compared to DMSO) PRL-1 [3] | % Phosphatase Activity (compared to DMSO) PRL-3 [1, 4] | % Phosphatase Activity (compared to DMSO) PRL-2 [2, 4] | % Phosphatase Activity (compared to DMSO) PRL-1 [3, 4]
CN(C)[C@@H](CCOc1cccc2ccccc12)c1ccccc1 [Dapoxetine HCl] |  |  |  | 111% | 109% | 99%
Nc1ccc(S(=O)(=O)c2ccc(N)cc2)cc1 [Dapson] |  |  |  | 75% | 100% | 89%
CCCCCCCCCC(=O)N[C@@H](Cc1c[nH]c2ccccc12)C(=O)N[C@H](CC(N)=O)C(=O)N[C@@H](CC(=O)O)C(=O)N[C@@H]1C(=O)NCC(=O)N[C@@H](CCCN)C(=O)N[C@@H](CC(=O)O)C(=O)N[C@H](C)C(=O)N[C@@H](CC(=O)O)C(=O)NCC(=O)N[C@H](CO)C(=O)N[C@@H]([C@H](C)CC(=O)O)C(=O)N[C@@H](CC(=O)c2ccccc2N)C(=O)O[C@@H]1C [Daptomycin] |  |  |  | 95% | 75% | 90%
NC(=O)C(c1ccccc1)(c1ccccc1)[C@@H]1CCN(CCc2ccc3c(c2)CCO3)C1 [Darifenacin HBr] | 87% | 102% | 100% |  |  | 
CC(C)CN(C[C@@H](O)[C@H](Cc1ccccc1)NC(=O)O[C@H]1CO[C@H]2OCC[C@H]21)S(=O)(=O)c1ccc(N)cc1.CCO [Darunavir Ethanolate] |  |  |  | 80% | 81% | 99%
Cc1nc(Nc2ncc(C(=O)Nc3c(C)cccc3Cl)s2)cc(N2CCN(CCO)CC2)n1 [Dasatinib Monohydrate] |  |  |  | 98% | 79% | 97%
Cc1nc(Nc2ncc(C(=O)Nc3c(C)cccc3Cl)s2)cc(N2CCN(CCO)CC2)n1 [Dasatinib] |  |  |  | 81% | 88% | 89%
COc1cccc2c1C(=O)c1c(O)c3c(c(O)c1C2=O)C[C@@](O)(C(C)=O)C[C@@H]3O[C@H]1C[C@H](N)[C@H](O)[C@H](C)O1 [Daunorubicin HCl] |  |  |  | 82% | 92% | 83%
Nc1ncn([C@H]2C[C@H](O)[C@@H](CO)O2)c(=O)n1 [Decitabine] |  |  |  | 81% | 93% | 114%
CNC(=O)c1ccc(Nc2ncc(C(F)(F)F)c(NCc3nccnc3N(C)S(C)(=O)=O)n2)cc1 [Defactinib (VS-6063, PF-04554878)] |  |  |  | 89% | 87% | 98%
O=C(O)c1ccc(-n2nc(-c3ccccc3O)nc2-c2ccccc2O)cc1 [Deferasirox] |  |  |  | 81% | 104% | 108%
CC(=O)OCC(=O)[C@@]12N=C(C)O[C@@H]1C[C@H]1[C@@H]3CCC4=CC(=O)C=C[C@]4(C)[C@H]3[C@@H](O)C[C@@]12C [Deflazacort] |  |  |  | 103% | 102% | 90%
CC(=O)C1C(=O)C=C(C)OC1=O (stereo not drawn) [Dehydroacetic acid] |  |  |  | 90% | 98% | 99%
C[C@H](CCC(=O)O)[C@H]1CC[C@H]2[C@@H]3C(=O)C[C@@H]4CC(=O)CC[C@]4(C)[C@H]3CC(=O)[C@]12C [Dehydrocholic acid] |  |  |  | 80% | 118% | 103%
CN(C)[C@@H]1C(O)=C(C(N)=O)C(=O)[C@@]2(O)C(O)=C3C(=O)c4c(O)ccc(Cl)c4[C@@H](O)[C@H]3C[C@@H]12 [Demeclocycline HCl] |  |  |  | 67% | 86% | 90%
C[C@H](CCC(=O)O)[C@H]1CC[C@H]2[C@@H]3CC[C@@H]4C[C@H](O)CC[C@]4(C)[C@H]3C[C@H](O)[C@]12C [Deoxycholic acid] |  |  |  | 96% | 73% | 89%
CC(=O)OCC(=O)[C@H]1CC[C@H]2[C@@H]3CCC4=CC(=O)CC[C@]4(C)[C@H]3CC[C@]12C [Deoxycorticosterone acetate] |  |  |  | 74% | 83% | 84%
C#C[C@]1(O)CC[C@H]2[C@@H]3CCC4=CCCC[C@@H]4[C@H]3C(=C)C[C@@]21CC [Desogestrel] |  |  |  | 84% | 109% | 104%
